Data set [1] is described as follows: Sensory evaluation of degree of sweetness relative to sugar. The settings on record: for degrees of sweetness: relative to a degree of sweetness of a 4% aqueous sucrose solution; for degree of sweetness: sensory evaluation.
Description: ^3 Degree of sweetness relative to a degree of sweetness of a 4%
Data set [2] is described as follows: Stability (half-life) in phosphate buffer of pH 3 at 70° C. It counts as physicochemical. The conditions noted are these: acidic aqueous solution. The protocol: The peptides of the present invention may be 2 to 15 times as stable as aspartame when measured in a phosphate buffer of pH 3 at 70° C. This range in stability as compared to aspartame includes all specific values and subranges therebetween. The half-lives (in a phosphate buffer of pH 3 at 70° C.) of α-L-aspartyl-D-valine (R)-α-methylthiomethylbenzylamide, α-L-aspartyl-D-isoleucine (R)-α-methylthiomethylbenzylamide and α-L-aspartyl-D-valine (S)-α-methoxycarbonylmethylbenzylamide in an acidic aqueous solution were approximately 220 hours, 650 hours and 139 hours respectively.

Peptide text beside a SMILES is read from it.

Regarding `COC(=O)CC(NC(=O)[C@H](NC(=O)[C@@H](N)CC(=O)O)C(C)C)C1CCCCC1` (mixture of isomers) [Example 6, α-L-aspartyl-D-valine (RS)-α-cyclohexyl-β-methoxycarbonylethylamide], in data set [1], the degrees of sweetness stood at 400 and the “Degree of sweetness (relative to sugar)” value is 400 times.

In the case of `CC[C@@H](NC(=O)[C@@H](N)CC(=O)O)C(=O)NC(CC(=O)OC)c1ccccc1` (mixture of isomers) [Example 10, α-L-aspartyl-D-α-aminobutyric acid (RS)-α-methoxycarbonylmethylbenzylamide], in data set [1], the degrees of sweetness is reported as 800 and the “Degree of sweetness (relative to sugar)” value is 800 times.

On to `CC[C@@H](NC(=O)[C@@H](N)CC(=O)O)C(=O)NC(CC(=O)OC)c1ccc(OC)cc1` (mixture of isomers) [Example 11], for which, in data set [1], the degrees of sweetness worked out at 200 and the “Degree of sweetness (relative to sugar)” value is 200 times.

With `CC[C@@H](NC(=O)[C@@H](N)CC(=O)O)C(=O)NC(CC(=O)OC)c1cccc2c1OCO2` (mixture of isomers) [Example 12], in data set [1], the degrees of sweetness is on record as 250 and the “Degree of sweetness (relative to sugar)” value is recorded as 250 times.

`CC[C@@H](NC(=O)[C@@H](N)CC(=O)O)C(=O)NC(CC(=O)OC)c1ccc(O)cc1` (mixture of isomers) [Example 13]: in data set [1], the degrees of sweetness came out at 200 and the “Degree of sweetness (relative to sugar)” value came out at 200 times.

Take `CC[C@@H](NC(=O)[C@@H](N)CC(=O)O)C(=O)NC(CC(=O)OC)c1ccc(C)cc1` (mixture of isomers) [Example 14]: in data set [1], the degrees of sweetness was 200 and the “Degree of sweetness (relative to sugar)” value is on record as 200 times.

For the molecule `CC[C@@H](NC(=O)[C@@H](N)CC(=O)O)C(=O)NC(CC(=O)OC)C1CCCCC1` (mixture of isomers) [Example 15, α-L-aspartyl-D-α-aminobutyric acid (RS)-α-cyclohexyl-β-methoxycarbonylethylamide], in data set [1], the degrees of sweetness turned out to be 700 and the “Degree of sweetness (relative to sugar)” value is 700 times.

In the case of `CC[C@@H](NC(=O)[C@H](CC(=O)O)NCCC(C)(C)C)C(=O)NC(CC(=O)OC)c1ccccc1` (mixture of isomers) [Example 18, N-3,3-dimethylbutyl-α-L-aspartyl-D-α-aminobutyric acid (RS)-α-methoxycarbonylmethylbenzylamide], in data set [1], the degrees of sweetness is 1250 and the “Degree of sweetness (relative to sugar)” value is listed as 1,250 times.

In the case of `COC(=O)CC(NC(=O)[C@H](NC(=O)[C@H](CC(=O)O)NCCC(C)(C)C)C(C)C)c1ccccc1` (mixture of isomers) [Example 19, N-3,3-dimethylbutyl-α-L-aspartyl-D-valine (RS)-α-methoxycarbonylmethylbenzylamide], in data set [1], the degrees of sweetness came to 1250 and the “Degree of sweetness (relative to sugar)” value is listed as 1,250 times.

On to `CC[C@@H](NC(=O)[C@H](CC(=O)O)NCCC(C)(C)C)C(=O)NC(CC(=O)OC)C1CCCCC1` (mixture of isomers) [Example 20, N-3,3-dimethylbutyl-α-L-aspartyl-D-α-aminobutyric acid (RS)-α-cyclohexyl-β-methoxycarbonylethylamide], for which, in data set [1], the degrees of sweetness was 1250 and the “Degree of sweetness (relative to sugar)” value is 1,250 times.

In the case of `CSC[C@H](NC(=O)[C@H](NC(=O)[C@@H](N)CC(=O)O)C(C)C)c1ccccc1` [Example 1, α-L-aspartyl-D-valine (R)-α-methylthiomethylbenzylamide], in data set [1], the degrees of sweetness came to 3000, the “Degree of sweetness (relative to sugar)” value is given as 3,000 times and the degree of sweetness result is “approximately 3,000 times that of sugar”. The half-life result in data set [2] is reported as “approximately 220 hours”.

With `CSC[C@H](NC(=O)[C@@H](C)NC(=O)[C@@H](N)CC(=O)O)c1ccccc1` [Example 2, α-L-aspartyl-D-alanine (R)-α-methylthiomethylbenzylamide], in data set [1], the degrees of sweetness came out at 1000 and the “Degree of sweetness (relative to sugar)” value was 1,000 times.

Consider `CC[C@@H](NC(=O)[C@@H](N)CC(=O)O)C(=O)N[C@@H](CSC)c1ccccc1` [Example 3, α-L-aspartyl-D-α-aminobutyric acid (R)-α-methylthiomethylbenzylamide], for which, in data set [1], the degrees of sweetness stood at 4000, the “Degree of sweetness (relative to sugar)” value was 4,000 times and the degree of sweetness result is listed as “approximately 4,000 times that of sugar”.

For `CC[C@@H](C)[C@@H](NC(=O)[C@@H](N)CC(=O)O)C(=O)N[C@@H](CSC)c1ccccc1` [Example 4, α-L-aspartyl-D-isoleucine (R)-α-methylthiomethylbenzylamide], in data set [1], the degrees of sweetness is 5000, the “Degree of sweetness (relative to sugar)” value is 5,000 times and the degree of sweetness entry is on record as “approximately 5,000 times that of sugar”. Besides, the half-life in data set [2] is around 27.1 days.

`COC(=O)C[C@H](NC(=O)[C@H](NC(=O)[C@@H](N)CC(=O)O)C(C)C)c1ccccc1` [Example 5, α-L-aspartyl-D-valine (S)-α-methoxycarbonylmethylbenzylamide]: in data set [1], the degrees of sweetness was determined as 1500, the “Degree of sweetness (relative to sugar)” value is recorded as 1,500 times and the degree of sweetness result is listed as “approximately 1,500 times that of sugar”. Further, in data set [2], the half-life is around 5.79 days.

As to `CC[C@@H](NC(=O)[C@@H](N)CC(=O)O)C(=O)NC1(c2ccccc2)CCCC1` [Example 7, α-L-aspartyl-D-α-aminobutyric acid α-phenylcyclopentylamide], in data set [1], the degrees of sweetness was determined as 750 and the “Degree of sweetness (relative to sugar)” value turned out to be 750 times.

Take `CC(C)[C@@H](NC(=O)[C@@H](N)CC(=O)O)C(=O)NC1(c2ccccc2)CCCC1` [Example 8, α-L-aspartyl-D-valine α-phenylcyclopentylamide]: in data set [1], the degrees of sweetness worked out at 1200, the “Degree of sweetness (relative to sugar)” value was 1,200 times and the degree of sweetness entry is recorded as “approximately 1,200 times that of sugar”.

Take `CC[C@@H](C)[C@@H](NC(=O)[C@@H](N)CC(=O)O)C(=O)NC(C)(C)c1ccccc1` [Example 9, α-L-aspartyl-D-isoleucine α,α-dimethylbenzylamide]: in data set [1], the degrees of sweetness is reported as 250 and the “Degree of sweetness (relative to sugar)” value was 250 times.

Regarding `CC(C)[C@@H](NC(=O)[C@@H](N)CC(=O)O)C(=O)NC(C)(C)c1ccccc1` [Example 16, α-L-aspartyl-D-valine α,α-dimethylbenzylamide], in data set [1], the degrees of sweetness was found to be 500 and the “Degree of sweetness (relative to sugar)” value was 500 times.

In the case of `CSC[C@H](NC(=O)[C@H](NC(=O)[C@H](CC(=O)O)NCCC(C)(C)C)C(C)C)c1ccccc1` [Example 17, N-3,3-dimethylbutyl-α-L-aspartyl-D-valine (R)-α-methylthiomethylbenzylamide], in data set [1], the degrees of sweetness is given as 5000, the “Degree of sweetness (relative to sugar)” value is reported as 5,000 times and the degree of sweetness result is reported as “approximately 5,000 times that of sugar”.

With `COC(=O)[C@H](Cc1ccccc1)NC(=O)[C@@H](N)CC(=O)O` [aspartame, reference compound] (H-Asp-Phe-OMe), the half-life result in data set [2] is given as “approximately 23 hours”.

The record behind these values is patent publication US5958496A, “Aspartyl dipeptide amide derivatives and sweeteners” (Ajinomoto Co., Inc., priority 1996, dated 1999).
